Calls of active or inactive are those of the source. No cut-off for these calls is given here.
Assays:
[1] = biological target: T1, P2X purinoceptor 7 (Homo sapiens) (UniProt Q99572); assay: Antagonist activity at human P2X7 receptor expressed in HEK293 cells assessed as inhibition of ATP-induced receptor pore formation at 1 uM by propidium iodide dye uptake based fluorescence analysis; type: cell-based
T1 sequence (whole entry): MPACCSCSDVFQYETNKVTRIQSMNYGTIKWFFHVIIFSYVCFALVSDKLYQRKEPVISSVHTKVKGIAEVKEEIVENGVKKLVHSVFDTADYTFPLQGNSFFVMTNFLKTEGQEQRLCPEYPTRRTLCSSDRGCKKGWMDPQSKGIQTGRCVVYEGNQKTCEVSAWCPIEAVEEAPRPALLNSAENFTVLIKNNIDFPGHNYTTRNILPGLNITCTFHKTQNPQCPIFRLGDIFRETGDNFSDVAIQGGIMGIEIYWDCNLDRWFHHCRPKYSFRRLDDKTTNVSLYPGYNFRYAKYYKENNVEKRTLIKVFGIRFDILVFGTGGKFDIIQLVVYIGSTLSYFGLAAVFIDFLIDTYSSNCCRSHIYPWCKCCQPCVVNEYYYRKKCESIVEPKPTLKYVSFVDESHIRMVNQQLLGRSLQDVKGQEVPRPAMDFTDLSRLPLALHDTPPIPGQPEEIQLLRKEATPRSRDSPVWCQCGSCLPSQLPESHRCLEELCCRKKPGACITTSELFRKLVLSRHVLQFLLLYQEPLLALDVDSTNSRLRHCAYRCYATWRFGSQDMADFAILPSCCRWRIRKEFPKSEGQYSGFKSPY

[2] = biological target: T2, P2X purinoceptor 7 (Mus musculus) (UniProt Q9Z1M0); assay: Antagonist activity at mouse P2X7 receptor expressed in HEK293 cells assessed as inhibition of ATP-induced receptor pore formation at 1 uM by propidium iodide dye uptake based fluorescence analysis; type: cell-based
T2 sequence (whole entry): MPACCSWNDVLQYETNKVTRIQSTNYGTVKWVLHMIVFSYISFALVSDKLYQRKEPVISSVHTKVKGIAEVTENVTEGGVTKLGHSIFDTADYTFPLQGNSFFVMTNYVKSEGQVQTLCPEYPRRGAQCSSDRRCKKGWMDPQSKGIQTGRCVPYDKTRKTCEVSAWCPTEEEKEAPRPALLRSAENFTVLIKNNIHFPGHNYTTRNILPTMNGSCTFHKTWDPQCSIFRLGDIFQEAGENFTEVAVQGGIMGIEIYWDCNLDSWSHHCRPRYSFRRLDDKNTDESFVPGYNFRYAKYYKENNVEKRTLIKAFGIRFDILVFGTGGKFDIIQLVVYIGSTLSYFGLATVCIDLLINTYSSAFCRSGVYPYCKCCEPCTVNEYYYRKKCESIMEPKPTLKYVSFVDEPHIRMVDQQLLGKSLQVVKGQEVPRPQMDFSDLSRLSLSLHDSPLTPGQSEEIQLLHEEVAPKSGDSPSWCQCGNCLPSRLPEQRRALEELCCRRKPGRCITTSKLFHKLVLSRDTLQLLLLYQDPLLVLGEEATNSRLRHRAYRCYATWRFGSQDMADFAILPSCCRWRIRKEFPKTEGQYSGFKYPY

[3] = biological target: T1, P2X purinoceptor 7 (Homo sapiens); assay: Antagonist activity at human P2X7 receptor expressed in HEK293 cells assessed as inhibition of ATP-induced receptor pore formation at 200 nM by propidium iodide dye uptake based fluorescence analysis; type: cell-based
[4] = biological target: T2, P2X purinoceptor 7 (Mus musculus); assay: Antagonist activity at mouse P2X7 receptor expressed in HEK293 cells assessed as inhibition of ATP-induced receptor pore formation at 200 nM by propidium iodide dye uptake based fluorescence analysis; type: cell-based
P2X purinoceptor 7 [5] = biological target: T3, P2X purinoceptor 7 (Homo sapiens, UniProt Q99572); assay: Antagonist activity at human P2X7 receptor expressed in HEK293 cells assessed as inhibition of ATP-induced receptor pore formation by propidium iodide dye uptake based fluorescence analysis; type: cell-based
T3 sequence (Q99572 whole entry): T1 sequence (whole entry)

[6] = biological target: T1, P2X purinoceptor 7 (Homo sapiens); assay: Antagonist activity at human P2X7 receptor expressed in HEK293 cells assessed as inhibition of ATP-induced receptor pore formation at 10 uM by propidium iodide dye uptake based fluorescence analysis; type: cell-based
[7] = biological target: T2, P2X purinoceptor 7 (Mus musculus); assay: Antagonist activity at mouse P2X7 receptor expressed in HEK293 cells assessed as inhibition of ATP-induced receptor pore formation at 10 uM by propidium iodide dye uptake based fluorescence analysis; type: cell-based
P2X purinoceptor 7 [8] = biological target: T4, P2X purinoceptor 7 (Mus musculus, UniProt Q9Z1M0); assay: Antagonist activity at mouse P2X7 receptor expressed in HEK293 cells assessed as inhibition of ATP-induced receptor pore formation by propidium iodide dye uptake based fluorescence analysis; type: cell-based
T4 sequence (Q9Z1M0 whole entry): T2 sequence (whole entry)

[9] = Intrinsic clearance in human liver microsomes; type: ADME, Microsome; conditions: read-out: CLH
[10] = Half life in human liver microsomes; type: ADME, Microsome
[11] = Intrinsic clearance in mouse liver microsomes; type: ADME, Microsome; conditions: read-out: CLH
[12] = Half life in mouse liver microsomes; type: ADME, Microsome

SMILES	inhibition [1]	inhibition [3]	inhibition [4]	inhibition ([1]; filed as antagonist) [%]	inhibition ([2]; filed as antagonist) [%]	IC50 (P2X purinoceptor 7 [8]) [nM]	other results
O=C(NCc1cn(-c2cc(Cl)ccn2)nn1)c1cc(-c2cccc3[nH]ccc23)ccc1Cl	34.1%	15.6%	inactive				inhibition [2]: 10.2%
CS(=O)(=O)c1ccc(-c2nc(C(=O)NCc3cn(-c4ccc(Br)cn4)nn3)cs2)cc1		11%	inactive	51.6			inhibition [2]: inactive; IC50 (P2X purinoceptor 7 [5]): 811 nM
O=C(NCc1cn(-c2cc(Cl)ccn2)nn1)c1ccc(Cl)cc1							inhibition [6]: inactive; inhibition ([7]; filed as antagonist): 62.8%
O=C(NCc1cn(-c2cc(Cl)ccn2)nn1)c1ccccc1Cl							inhibition [6]: inactive; inhibition [7]: inactive
O=C(NCc1cn(-c2cc(Cl)ccn2)nn1)c1cc(-c2cccc3ncccc23)ccc1Cl	33.1%	13.6%			72.4	138	inhibition ([6]; filed as antagonist): > 50%; inhibition ([7]; filed as antagonist): > 50%; inhibition ([4]; filed as antagonist): 66.7%
CS(=O)(=O)c1ccc(-c2ccc(Cl)c(C(=O)NCc3cn(-c4cc(Cl)ccn4)nn3)c2)cc1		22.9%		40	71	99.1	inhibition ([6]; filed as antagonist): > 50%; inhibition ([7]; filed as antagonist): > 50%; inhibition ([4]; filed as antagonist): 66%
CS(=O)(=O)Nc1cccc(-c2ncc(C(=O)NCc3cn(-c4cc(Cl)ccn4)nn3)s2)c1	6.8%	inactive	inactive				inhibition [2]: 17.3%
CS(=O)(=O)c1cccc(-c2ncc(C(=O)NCc3cn(-c4cc(Cl)ccn4)nn3)s2)c1	36.7%	inactive	inactive				inhibition [2]: 25.8%
CS(=O)(=O)Nc1ccc(-c2ccc(Cl)c(C(=O)NCc3cn(-c4cc(Cl)ccn4)nn3)c2)cc1	inactive	inactive	inactive		45.1		
CS(=O)(=O)c1ccc(-c2ncc(C(=O)NCc3cn(-c4cccc(Br)n4)nn3)s2)cc1	6.2%	inactive	inactive		52	626	
O=C(NCc1cn(-c2cc(Cl)ccn2)nn1)c1cccc(C(F)(F)F)c1Cl							inhibition ([6]; filed as antagonist): 46.5%; inhibition [7]: 13.2%
O=C(NCc1cn(-c2cc(Cl)ccn2)nn1)c1ccc(C(F)(F)F)cc1Cl							inhibition ([6]; filed as antagonist): 45.1%; inhibition [7]: 39.3%
Nc1cccc(-c2ccc(Cl)c(C(=O)NCc3cn(-c4cc(Cl)ccn4)nn3)c2)c1	21.9%	24.4%	19.1%				inhibition [2]: inactive
CS(=O)(=O)c1ccc(-c2ncc(C(=O)NCc3cn(-c4ccc(Br)cn4)nn3)s2)cc1	33.3%	12.4%	inactive				inhibition [2]: inactive
O=C(NCc1cn(-c2cc(Cl)ccn2)nn1)c1cnc(-c2cccc(NS(=O)(=O)N3CCOCC3)c2)s1				78.8	112	58.5	inhibition ([3]; filed as antagonist): 46.5%; inhibition ([4]; filed as antagonist): 82.4%; IC50 (P2X purinoceptor 7 [5]): 436 nM; CLint scaled [9]: 24.1 mL/min/kg; half-life [10]: 1.2 h; CLint scaled [11]: 215 mL/min/kg; half-life [12]: 0.423 h
COc1ccc(-c2ccc(Cl)c(C(=O)NCc3cn(-c4cc(Cl)ccn4)nn3)c2)cc1OC		35.7%	inactive	59.2	51	1790	IC50 (P2X purinoceptor 7 [5]): 285 nM; CLint scaled [9]: 17.8 mL/min/kg; half-life [10]: 1.63 h; CLint scaled [11]: 216 mL/min/kg; half-life [12]: 0.421 h
CS(=O)(=O)c1cccc(-c2ccc(Cl)c(C(=O)NCc3cn(-c4cc(Cl)ccn4)nn3)c2)c1		inactive	inactive	41.9	49.6		inhibition ([6]; filed as antagonist): > 50%; inhibition ([7]; filed as antagonist): > 50%

SMILES	inhibition [1]	inhibition [3]	inhibition [4]	inhibition ([1]; filed as antagonist) [%]	inhibition ([2]; filed as antagonist) [%]	IC50 (P2X purinoceptor 7 [8]) [nM]	other results
Cc1cccc(Cl)c1C(=O)NCc1cn(-c2cc(Cl)ccn2)nn1							inhibition [6]: inactive; inhibition [7]: 34.4%
CC(C)S(=O)(=O)c1ccc(-c2ncc(C(=O)NCc3cn(-c4cc(Cl)ccn4)nn3)s2)cc1		22.1%		56.3	92.6	344	inhibition ([4]; filed as antagonist): 67.6%; IC50 (P2X purinoceptor 7 [5]): 659 nM; CLint scaled [9]: 40.4 mL/min/kg; half-life [10]: 0.717 h; CLint scaled [11]: 66.2 mL/min/kg; half-life [12]: 1.38 h
O=C(NCc1cn(-c2cc(Cl)ccn2)nn1)c1cc(-c2cccc3cc[nH]c23)ccc1Cl	inactive	inactive	25.6%		62.5	351	
O=C(NCc1cn(-c2cc(Cl)ccn2)nn1)c1ccc(C(F)(F)F)c(Br)c1							inhibition ([6]; filed as antagonist): 53.5%; inhibition [7]: 22.5%
Nc1cccc(-c2ncc(C(=O)NCc3cn(-c4cc(Cl)ccn4)nn3)s2)c1		9.8%	2.9%	57.3			inhibition [2]: 35.2%; IC50 (P2X purinoceptor 7 [5]): 658 nM
CC(C)Cc1ccc(-c2ccc(Cl)c(C(=O)NCc3cn(-c4cc(Cl)ccn4)nn3)c2)cc1	39.2%	20.7%	inactive		59.3	409	
O=C(NCc1cn(-c2cc(Cl)ccn2)nn1)c1cnc(-c2ccc(NS(=O)(=O)N3CCOCC3)cc2)s1				86.1	78.2	104	inhibition ([3]; filed as antagonist): 55.2%; inhibition ([4]; filed as antagonist): 54.3%; IC50 (P2X purinoceptor 7 [5]): 99.6 nM; CLint scaled [9]: 15.3 mL/min/kg; half-life [10]: 1.89 h; CLint scaled [11]: 154 mL/min/kg; half-life [12]: 0.589 h
Cc1cc(F)ccc1-c1ccc(Cl)c(C(=O)NCc2cn(-c3cc(Cl)ccn3)nn2)c1	23.3%	13.4%	17.8%				inhibition [2]: 9.2%
O=C(NCc1cn(-c2cc(Cl)ccn2)nn1)c1cnc(-c2cccc(NS(=O)(=O)C3CC3)c2)s1				62.5	83.9	69.9	inhibition ([3]; filed as antagonist): 40%; inhibition ([4]; filed as antagonist): 68.3%; IC50 (P2X purinoceptor 7 [5]): 656 nM; CLint scaled [9]: < 12 mL/min/kg; half-life [10]: > 2 h; CLint scaled [11]: < 12 mL/min/kg; half-life [12]: > 2 h
Nc1ccc(-c2ncc(C(=O)NCc3cn(-c4cc(Cl)ccn4)nn3)s2)cc1	39.2%				60.7	188	inhibition ([3]; filed as antagonist): 46.2%; inhibition ([4]; filed as antagonist): 51.7%
CS(=O)(=O)c1ccc(-c2csc(C(=O)NCc3cn(-c4cc(Cl)ccn4)nn3)n2)cc1		5%		40.9	74	166	inhibition ([4]; filed as antagonist): 55.2%
O=C(NCc1cn(-c2cc(Cl)ccn2)nn1)c1cc(Br)ccc1Cl							inhibition ([6]; filed as antagonist): 59.3%; inhibition [7]: 10%
CS(=O)(=O)c1ccc(-c2ncc(C(=O)NCc3cn(-c4cc(F)ccn4)nn3)s2)cc1		37.8%		45.1	61.8	196	inhibition ([4]; filed as antagonist): 68.4%
O=C(NCc1cn(-c2cc(Cl)ccn2)nn1)c1c(Cl)cccc1Br							inhibition [6]: 23.1%; inhibition ([7]; filed as antagonist): 62.3%
CS(=O)(=O)c1ccc(-c2nc(C(=O)NCc3cn(-c4cccc(Br)n4)nn3)cs2)cc1		10.1%	inactive	53.8			inhibition [2]: inactive; IC50 (P2X purinoceptor 7 [5]): 710 nM
CS(=O)(=O)c1ccc(-c2nc(C(=O)NCc3cn(-c4cc(F)ccn4)nn3)cs2)cc1	23.2%	inactive	23.3%		41.9		
